pIC50: −log10 of the molar value.
Molecular target: NLRP3 inflammasome (Homo sapiens (Human), UniProt Q96P20)
Test: NLRP3 inflammasome inhibitory activity: inhibition of IL-1β production in THP1-Null cells (PMA, LPS, Nigericin)
Format: cell-based
Settings: for pIC50: Nigericin 7.5 μmol/L
Method: The NLRP3 inflammasome inhibitory activity of test compounds were evaluated on the basis of the inhibitory activity of the IL-1β production in THP1-Null cells (Product Number: thp-null, InvivoGen). Cells were maintained for culture in RPMI-1640 media containing 10% (v/v) fetal bovine serum, 25 mmol/L HEPES, 100 U/mL penicillin, 100 μg/mL streptomycin, 100 μg/mL normocin, and 200 μg/mL hygromycin B (set at 37° C., 5% CO2/95% air).
Cells were suspended with media for assay containing 0.5 μmol/L PMA (RPMI-1640 media containing 10% (v/v) fetal bovine serum, 100 U/mL penicillin, and 100 μg/mL streptomycin), and the suspended cells were seeded on Corning (registered trademark) 384-well Flat Clear Bottom Black Polystyrene TC-treated Microplates (25,000 cells/25 μL/well), followed by incubation (set at 37° C., 5% CO2/95% air) overnight. The supernatant of the culture was removed, and thereto was added media for assay (25 μL/well) containing 1 μg/mL Lipopolysaccharides (Product Number: L2654, Sigma-Aldrich (registered trademark)). Then, the culture was further incubated for 3 hours (set at 37° C., 5% CO2/95% air). The supernatant of the culture was removed. Then, a vehicle solution prepared from Opti-MEM (trademark) medium (Product Number: 31985-070, Invitrogen) was added to blank-setting wells and control-setting wells (20 μL/well), followed by incubation for 15 minutes (set at 37° C., 5% CO2/95% air). A solution containing a test compound (20 μL/well) was added to test compound-setting wells. Further, Opti-MEM (trademark) medium containing Nigericin (Product Number: N7143, Sigma-Aldrich (registered trademark)) was added to the control-setting wells and test compound-setting wells (5 μL/well), followed by incubation for 1.5 hours (set at 37° C., 5% CO2/95% air). The final concentration of Nigericin was adjusted to be 7.5 μmol/L. 5 μL/well of Opti-MEM (trademark) medium was added to the blank-setting wells. The supernatant of the culture was cryonically stored (set at −20° C.) until measurement of IL-1β.
The amount of IL-1β in the culture supernatant was quantitated with AlphaLISA (registered trademark) Human IL-1β Detection Kit (Product Number: AL220C, Perkin Elmer). Fluorescence intensity was measured with a microplate reader EnSpier (Model number: 2300-00J, Perkin Elmer) or EnSight (Model number: HH34000000, Perkin Elmer) according to procedure manuals attached thereto. Inhibition rates of the test compound-setting wells were calculated on the basis of 100% for the blank-setting wells and 0% for the control-setting wells. IC50 values (i.e., 50% inhibitory concentrations) of the test compounds were calculated by logistic regression analysis.

NLRP3 inflammasome, sequence (Q96P20 whole entry): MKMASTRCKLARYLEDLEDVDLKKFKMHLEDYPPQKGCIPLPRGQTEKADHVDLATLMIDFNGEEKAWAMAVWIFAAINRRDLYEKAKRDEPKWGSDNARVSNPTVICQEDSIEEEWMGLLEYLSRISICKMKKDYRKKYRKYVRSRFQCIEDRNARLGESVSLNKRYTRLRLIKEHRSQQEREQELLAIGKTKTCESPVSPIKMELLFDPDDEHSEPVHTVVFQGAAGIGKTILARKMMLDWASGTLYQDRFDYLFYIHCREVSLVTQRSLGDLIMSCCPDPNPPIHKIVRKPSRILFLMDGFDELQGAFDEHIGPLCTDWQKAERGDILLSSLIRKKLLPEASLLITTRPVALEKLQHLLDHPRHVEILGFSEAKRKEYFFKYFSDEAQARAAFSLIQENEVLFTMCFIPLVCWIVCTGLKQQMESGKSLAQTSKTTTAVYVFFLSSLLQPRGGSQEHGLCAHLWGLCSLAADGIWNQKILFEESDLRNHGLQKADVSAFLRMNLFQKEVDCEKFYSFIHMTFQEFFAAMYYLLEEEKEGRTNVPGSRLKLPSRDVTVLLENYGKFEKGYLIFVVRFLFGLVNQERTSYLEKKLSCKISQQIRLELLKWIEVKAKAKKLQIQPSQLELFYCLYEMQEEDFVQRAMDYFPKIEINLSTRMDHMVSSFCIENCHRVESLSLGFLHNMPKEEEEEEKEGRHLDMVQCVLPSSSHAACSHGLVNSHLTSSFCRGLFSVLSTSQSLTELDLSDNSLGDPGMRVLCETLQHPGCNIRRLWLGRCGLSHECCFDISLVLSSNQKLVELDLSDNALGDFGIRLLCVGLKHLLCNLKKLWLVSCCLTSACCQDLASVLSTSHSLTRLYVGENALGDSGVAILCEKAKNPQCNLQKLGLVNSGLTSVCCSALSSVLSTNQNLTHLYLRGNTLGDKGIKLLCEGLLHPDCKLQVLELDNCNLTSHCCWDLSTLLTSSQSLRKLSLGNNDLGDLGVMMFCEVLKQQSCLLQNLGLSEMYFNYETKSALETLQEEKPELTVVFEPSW

Row | SMILES | pIC50 | other results
1 | Cc1cc(C(C)(F)F)cc(C)c1-n1cc2c(=O)[nH]c(-c3ccn(C)n3)nc2n1 [Example 8, 2-{4-(1,1-difluoroethyl)-2,6-dimethylphenyl}-6-(1-methyl-1H-pyrazol-3-yl)-2,5-dihydro-4H-pyrazolo[3,4-d]pyrimidin-4-one] | 7.48 | 
2 | Cc1csc(-c2nc3nn(-c4c(C)cc(C5CC5)cc4C)cc3c(=O)[nH]2)n1 [Example 50] | 8.22 | 
3 | Cc1cc(C2CC2)cc(C)c1-n1cc2c(=O)[nH]c(-c3cc[nH]n3)nc2n1 [Example 13] | 7.54 | 
4 | COCc1cc(C2CC2)cc(C)c1-n1cc2c(=O)[nH]c(-c3ccn(C)n3)nc2n1 [Example 40] | 8.20 | 
5 | Cc1cc(Br)cc(C)c1-n1cc2c(=O)[nH]c(-c3cc(C(F)(F)F)ncn3)nc2n1 [Example 31] | 6.03 | 
6 | Cc1cc(C(C)(F)F)cc(C)c1-n1cc2c(=O)[nH]c(-c3nc[nH]n3)nc2n1 [Example 60] | 6.41 | 
7 | Cc1cc(C2CC2)cc(C)c1-n1cc2c(=O)[nH]c(-c3ccncn3)nc2n1 [Example 43] | 8.37 | 
8 | COc1cc(C)c(-n2cc3c(=O)[nH]c(-c4ccn(C)n4)nc3n2)c(C)c1 [Example 2] | 7.19 | 
9 | Cc1cc(C2CC2)cc(C)c1-n1cc2c(=O)[nH]c(-c3ccnn3C)nc2n1 [Example 5] | 7.64 | 
10 | Cn1ccc(-c2nc3nn(-c4cc5c(cc4Cl)OCCC5)cc3c(=O)[nH]2)n1 [Example 56] | 7.08 | 
11 | Cc1cccc(C)c1-n1cc2c(=O)[nH]c(-c3ccn(C)n3)nc2n1 [Example 44] | 6.06 | 
12 | Cc1cc(I)cc(C)c1-n1cc2c(=O)[nH]c(-c3ccn(C)n3)nc2n1 [Example 48] | 8.60 | 
13 | Cc1cc(-c2nc3nn(-c4c(C)cc(Br)cc4C)cc3c(=O)[nH]2)no1 [Example 25] | 7.82 | 
14 | Cc1cc(C2CC2)cc(C)c1-n1cc2c(=O)[nH]c(-c3ccnnc3)nc2n1 [Example 28] | 7.96 | 
15 | Cn1ccc(-c2nc3nn(-c4cc5c(cc4Cl)CCC5)cc3c(=O)[nH]2)n1 [Example 59, 2-(6-chloro-2,3-dihydro-1H-inden-5-yl)-6-(1-methyl-1H-pyrazol-3-yl)-2,5-dihydro-4H-pyrazolo[3,4-d]pyrimidin-4-one] | 7.47 | 
16 | Cc1ncc(-c2nc3nn(-c4c(C)cc(Br)cc4C)cc3c(=O)[nH]2)o1 [Example 24] | 7.28 | 
17 | Cc1cc(C2CC2)cc(C)c1-n1cc2c(=O)[nH]c(-c3cnn4c3OCCC4)nc2n1 [Example 53] | 6.62 | 
18 | Cc1cc(C2CC2)cc(C)c1-n1cc2c(=O)[nH]c(-c3nn(C)cc3F)nc2n1 [Example 38] | 7.82 | 
19 | Cc1cn(C)nc1-c1nc2nn(-c3c(C)cc(C4CC4)cc3C)cc2c(=O)[nH]1 [Example 6] | 7.30 | 
20 | Cc1cc(C2CC2)cc(C)c1-n1cc2c(=O)[nH]c(-c3cc4n(n3)CCOC4)nc2n1 [Example 54] | 8.05 | 

Row | SMILES | pIC50 | other results
21 | Cc1cc(C2CC2)cc(C)c1-n1cc2c(=O)[nH]c(-c3ccncc3F)nc2n1 [Example 36] | 7.80 | 
22 | Cc1cc(C2CC2)cc(CO)c1-n1cc2c(=O)[nH]c(-c3ccn(C)n3)nc2n1 [Example 49] | 7.43 | 
23 | COCCn1nccc1-c1nc2nn(-c3c(C)cc(Br)cc3C)cc2c(=O)[nH]1 [Example 17] | 6.66 | 
24 | Cc1cc(C2CC2)cc(C)c1-n1cc2c(=O)[nH]c(-c3cn(C)nn3)nc2n1 [Example 26] | 7.92 | 
25 | Cc1cc(Br)cc(C)c1-n1cc2c(=O)[nH]c(-c3cnn(C)c3)nc2n1 [Example 11] | 7.74 | 
26 | Cc1cc(OC(F)F)cc(C)c1-n1cc2c(=O)[nH]c(-c3cccnn3)nc2n1 [Example 27] | 7.21 | 
27 | COc1nccc(-c2nc3nn(-c4c(C)cc(Br)cc4C)cc3c(=O)[nH]2)n1 [Example 34] | 7.57 | 
28 | Cc1cc(Br)cc(C)c1-n1cc2c(=O)[nH]c(-c3cn(C)nn3)nc2n1 [Example 21] | 7.89 | 
29 | Cc1cc(C2CC2)cc(C)c1-n1cc2c(=O)[nH]c(-c3ccn(C4COC4)n3)nc2n1 [Example 19] | 7.21 | 
30 | Cc1cc(C2CC2)cc(C)c1-n1cc2c(=O)[nH]c(-c3cscn3)nc2n1 [Example 52] | 8.70 | 
31 | Cc1cc(C2CC2)cc(C)c1-n1cc2c(=O)[nH]c(-c3cc4n(n3)CCC4)nc2n1 [Example 57] | 8.05 | 
32 | Cc1ccccc1-n1cc2c(=O)[nH]c(-c3ccn(C)n3)nc2n1 [Example 1] | 5.42 | 
33 | Cc1cc(Br)cc(C)c1-n1cc2c(=O)[nH]c(-c3ccncc3F)nc2n1 [Example 35] | 7.62 | 
34 | Cc1cc(C(C)(F)F)cc(C)c1-n1cc2c(=O)[nH]c(-c3cscn3)nc2n1 [Example 58] | 8.52 | 
35 | Cc1cc(C2CC2)cc(C)c1-n1cc2c(=O)[nH]c(-c3cc4n(n3)CCCO4)nc2n1 [Example 55] | 7.62 | 
36 | Cc1cc(Br)cc(C)c1-n1cc2c(=O)[nH]c(-c3nn(C)cc3F)nc2n1 [Example 37] | 7.44 | 
37 | Cc1cc(C2(F)CC2(Cl)Cl)cc(C)c1-n1cc2c(=O)[nH]c(-c3ccn(C)n3)nc2n1 (racemic) [Example 45] |  | inhibition at 2.4 µM (at 2.4 μM): 34%
38 | COCCn1ccc(-c2nc3nn(-c4c(C)cc(C5CC5)cc4C)cc3c(=O)[nH]2)n1 [Example 20] | 7.64 | 
39 | COc1cc(C)c(-n2cc3c(=O)[nH]c(-c4cnn(C)c4)nc3n2)c(C)c1 [Example 3] | 6.96 | 
40 | Cc1cc(C2(F)CC2)cc(C)c1-n1cc2c(=O)[nH]c(-c3ccn(C)n3)nc2n1 [Example 46] | 8.51 | 

Row | SMILES | pIC50 | other results
41 | Cc1nnc(-c2nc3nn(-c4c(C)cc(Br)cc4C)cc3c(=O)[nH]2)o1 [Example 14] | 6.41 | 
42 | COCCn1ccc(-c2nc3nn(-c4c(C)cc(Br)cc4C)cc3c(=O)[nH]2)n1 [Example 16] | 7.33 | 
43 | Cc1cc(Br)cc(C)c1-n1cc2c(=O)[nH]c(-c3cccnn3)nc2n1 [Example 23] | 7.66 | 
44 | Cc1cc(C2CC2)cc(C)c1-n1cc2c(=O)[nH]c(-c3cnn(C)c3)nc2n1 [Example 47] | 8.17 | 
45 | Cc1cc(C2CC2)cc(C)c1-n1cc2c(=O)[nH]c(-c3cn(C)cn3)nc2n1 [Example 39, 2-(4-cyclopropyl-2,6-dimethylphenyl)-6-(1-methyl-1H-imidazol-4-yl)-2,5-dihydro-4H-pyrazolo[3,4-d]pyrimidin-4-one] | 7.64 | 
46 | CCn1ccc(-c2nc3nn(-c4c(C)cc(Br)cc4C)cc3c(=O)[nH]2)n1 [Example 30] | 7.40 | 
47 | Cc1cc(C(F)(F)F)cc(C)c1-n1cc2c(=O)[nH]c(-c3ccn(C)n3)nc2n1 [Example 29] | 7.16 | 
48 | Cc1cc(Br)cc(C)c1-n1cc2c(=O)[nH]c(-c3ccn(C)n3)nc2n1 [Example 10] | 7.70 | 
49 | Cc1cc(C2CC2)cc(C)c1-n1cc2c(=O)[nH]c(-c3ccn(C(F)F)n3)nc2n1 [Example 18] | 7.26 | 
50 | Cc1cc(Br)cc(C)c1-n1cc2c(=O)[nH]c(-c3cnccn3)nc2n1 [Example 22] | 7.17 | 
51 | Cc1cc(C(C)(F)F)cc(C)c1-n1cc2c(=O)[nH]c(-c3cn(C)cn3)nc2n1 [Example 41, 2-{4-(1,1-difluoroethyl)-2,6-dimethylphenyl}-6-(1-methyl-1H-imidazol-4-yl)-2,5-dihydro-4H-pyrazolo[3,4-d]pyrimidin-4-one] | 7.40 | 
52 | Cc1cc(C(C)(F)F)cc(C)c1-n1cc2c(=O)[nH]c(-c3ccncn3)nc2n1 [Example 42] | 7.85 | 
53 | Cc1cc(Br)cc(C)c1-n1cc2c(=O)[nH]c(-c3ccnnc3)nc2n1 [Example 15] | 7.82 | 
54 | Cc1cc(C2(O)CC2)cc(C)c1-n1cc2c(=O)[nH]c(-c3ccn(C)n3)nc2n1 [Example 51] |  | inhibition at 0.3 µM (at 0.3 μM): 35%
55 | Cc1cc(OC(F)F)cc(C)c1-n1cc2c(=O)[nH]c(-c3ccn(C)n3)nc2n1 [Example 9] | 7.31 | 
56 | Cc1cc(C2CC2)cc(C)c1-n1cc2c(=O)[nH]c(-c3ccn(C)n3)nc2n1 [Example 4, 2-(4-cyclopropyl-2,6-dimethylphenyl)-6-(1-methyl-1H-pyrazol-3-yl)-2,5-dihydro-4H-pyrazolo[3,4-d]pyrimidin-4-one] | 7.82 | 
57 | Cc1cc(C(F)(F)F)cc(C)c1-n1cc2c(=O)[nH]c(-c3ccncc3F)nc2n1 [Example 33] | 7.66 | 
58 | Cc1cc(Br)cc(C)c1-n1cc2c(=O)[nH]c(-c3ccncn3)nc2n1 [Example 12, 2-(4-bromo-2,6-dimethylphenyl)-6-(pyrimidine-4-yl)-2,5-dihydro-4H-pyrazolo[3,4-d]pyrimidin-4-one] | 8.11 | 
59 | Cc1cc(Br)cc(C)c1-n1cc2c(=O)[nH]c(-c3ccnc(C(F)(F)F)n3)nc2n1 [Example 32] | 7.11 | 
